As a reminder, the EC50 is the concentration needed to bring the measured effect to its halfway point.

This is an account of results in patent US20090221642A1, “MUSCARINIC RECEPTOR AGONISTS, COMPOSITIONS, METHODS OF TREATMENT THEREOF, AND PROCESSES FOR PREPARATION THEREOF-176” (AstraZeneca AB, priority 2008, published 2009).

In the assay the target is T1, hM1 (human Muscarinic receptor subtype 1) (Homo sapiens, UniProt P11229).
T1 construct: expressed in transfected cells; host or cells: CHO cells (Chinese hamster ovary cells, ATCC)
T1 sequence (P11229 1-460): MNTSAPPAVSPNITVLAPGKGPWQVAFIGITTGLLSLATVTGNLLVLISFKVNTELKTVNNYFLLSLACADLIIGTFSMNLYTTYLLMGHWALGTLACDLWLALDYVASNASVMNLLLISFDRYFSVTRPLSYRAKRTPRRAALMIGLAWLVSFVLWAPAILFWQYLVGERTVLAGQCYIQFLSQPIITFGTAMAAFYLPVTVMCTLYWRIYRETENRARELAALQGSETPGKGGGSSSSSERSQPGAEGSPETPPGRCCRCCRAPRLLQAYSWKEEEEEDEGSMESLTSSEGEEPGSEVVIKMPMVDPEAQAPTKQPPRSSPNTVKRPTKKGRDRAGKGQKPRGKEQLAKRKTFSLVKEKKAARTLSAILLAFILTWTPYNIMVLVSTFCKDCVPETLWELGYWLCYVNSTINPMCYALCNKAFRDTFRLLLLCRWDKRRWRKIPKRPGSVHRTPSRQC
Nature of the assay: Human M1 calcium mobilization FLIPR assay. The class given is cell-based. As to conditions: hM1 expressed in CHO cells, intracellular Ca2+ release, read-out: hM1 EC50. The protocol:
Human M1, rat M1, human M3 and human M5 Calcium Mobilization FLIPR™ Assay
The compound activity in the present invention (EC50 or IC50) is measured using a 384 plate-based imaging assay that monitors drug induced intracellular Ca^2+ release in whole cells. Activation of hM1 (human Muscarinic receptor subtype 1, gene bank access NM_000738), rM1 (rat Muscarinic receptor subtype 1, gene bank access NM_080773), hM3 (human Muscarinic receptor subtype 3, gene bank access NM_000740NM_000740) and hM5 (human Muscarinic receptor subtype 5, gene bank access NM_0121258), receptors expressed in CHO cells (Chinese hamster ovary cells, ATCC) is quantified in a Molecular Devices FLIPR II™ instrument as an increase in fluorescent signal. Inhibition of hM3 and hM5 by compounds is determined by the decrease in fluorescent signal in response to 2 nM acetylcholine activation.
Prior to experiment, the cell culture medium is removed from the plates by inversion. […] Plates are incubated at 37° C. for 60 minutes prior to start the experiment. The incubation is terminated by washing the cells four times in assay buffer, leaving a residual 25 μl buffer per well. Cell plates are then transferred to the FLIPR, ready for compound additions.
The day of experiment, acetylcholine and compounds are diluted in assay buffer in three-fold concentration range (10 points serial dilution) for addition by FLIPR instrument. For all calcium assays, a baseline reading is taken for 10 seconds followed by the addition of 12.5 μl of compounds, resulting in a total well volume of 37.5 μl. Data is collected every second for 60 pictures and then every 6 seconds for 20 pictures prior to the addition of agonist. For hM3 and hM5, before agonist addition, a second baseline reading is taken for 10 seconds followed by the addition of 12.5 μl of agonist or buffer, producing a final volume of 50 μl. After agonist stimulation, the FLIPR continues to collect data every second for 60 pictures and then every 6 seconds for 20 pictures. The fluorescence emission is read using filter 1 (emission 510-570 nm) by the FLIPR on board CCD camera.
Calcium mobilization output data are calculated as the maximal relative fluorescence unit (RFU) minus the minimal value for both compound and agonist reading frame (except for hM1 and rM1 using only the maximal RFU). Data are analyzed using sigmoidal fits of a non-linear curve-fitting program (XLfit version 4.2.2 Excel add-in version 4.2.2 build 18 math 1Q version 2.1.2 build 18). All pEC50 and plC50 values are reported as arithmetic means ±standard error of mean of ‘n’ independent experiments.
(Calcium assays in cells follow changes in intracellular calcium, usually with a dye or a luminescent sensor.)

Molecules are shown by their SMILES.

In the case of `CC(C)OC(=O)N1CCC(C)(N2CCC(n3c(=O)[nH]c4ccccc43)CC2)C1` (stereo not shown) [Example 3, isopropyl 3-methyl-3-(4-(2-oxo-2,3-dihydro-1H-benzo[d]imidazol-1-yl)piperidin-1-yl)pyrrolidine-1-carboxylate], the EC50 was 108 nM.
As to `CC1(N2CCC(n3c(=O)[nH]c4ccc(F)cc43)CC2)CCN(C(=O)OCCF)C1` (single isomer, unassigned) [Example 54, 2-fluoroethyl 3-(4-(6-fluoro-2-oxo-2,3-dihydro-1H-benzo[d]imidazol-1-yl)piperidin-1-yl)-3-methylpyrrolidine-1-carboxylate], the EC50 turned out to be 92.8 nM.
For `CCOC(=O)N1CCC(C)(N2CCC(N3C(=O)C4(CC4)c4ccc(F)cc43)CC2)C1` (stereo not shown) [Example 87, ethyl 3-(4-(6′-fluoro-2′-oxospiro[cyclopropane-1,3′-indoline]-1′-yl)piperidin-1-yl)-3-methylpyrrolidine-1-carboxylate] the value was 125 nM.
For `CC1(N2CCC(n3c(=O)[nH]c4cc(F)c(F)cc43)CC2)CCN(C(=O)OCCF)C1` (single isomer, unassigned) [Example 62, 2-fluoroethyl 3-(4-(5,6-difluoro-2-oxo-2,3-dihydro-1H-benzo[d]imidazol-1-yl)piperidin-1-yl)-3-methylpyrrolidine-1-carboxylate] the value was 79.8 nM.
For `COC(=O)N1CCC(C)(N2CCC(N3C(=O)Cc4ccc(F)cc43)CC2)C1` (single isomer, unassigned) [Example 77, methyl 3-(4-(6-fluoro-2-oxoindolin-1-yl)piperidin-1-yl)-3-methylpyrrolidine-1-carboxylate] the value was 94.5 nM; for `CC#CCOC(=O)N1CCC(C)(N2CCC(n3c(=O)[nH]c4cc(F)ccc43)CC2)C1` (single isomer, unassigned) [Example 35, but-2-ynyl 3-(4-(5-fluoro-2-oxo-2,3-dihydro-1H-benzo[d]imidazol-1-yl)piperidin-1-yl)-3-methylpyrrolidine-1-carboxylate], 56.9 nM.
Take `CC#CCOC(=O)N1CCC(C)(N2CCC(n3c(=O)[nH]c4ccc(C)cc43)CC2)C1` (single isomer, unassigned) [Example 18, but-2-ynyl 3-methyl-3-(4-(6-methyl-2-oxo-2,3-dihydro-1H-benzo[d]imidazol-1-yl)piperidin-1-yl)pyrrolidine-1-carboxylate]: the concentration for a half-maximal effect (EC50) came to 158 nM.
With `COC(=O)N1CCC(C)(N2CCC(n3c(=O)[nH]c4cc(F)ccc43)CC2)C1` (single isomer, unassigned) [Example 37, methyl 3-(4-(5-fluoro-2-oxo-2,3-dihydro-1H-benzo[d]imidazol-1-yl)piperidin-1-yl)-3-methylpyrrolidine-1-carboxylate] the figure was 76.5 nM; with `COC(=O)N1CCC(C)(N2CCC(N3C(=O)Cc4cc(F)ccc43)CC2)C1` (racemic) [Example 78, methyl 3-(4-(5-fluoro-2-oxoindolin-1-yl)piperidin-1-yl)-3-methylpyrrolidine-1-carboxylate], 76.2 nM.
For the compound `COC(=O)N1CCC(C)(N2CCC(n3c(=O)[nH]c4cc(C)ccc43)CC2)C1` (single isomer, unassigned) [Example 46, methyl 3-methyl-3-(4-(5-methyl-2-oxo-2,3-dihydro-1H-benzo[d]imidazol-1-yl)piperidin-1-yl)pyrrolidine-1-carboxylate], the EC50 worked out at 132 nM.
With `CC(C)OC(=O)N1CCC(C)(N2CCC(n3c(=O)[nH]c4ccc(F)cc43)CC2)C1` (single isomer, unassigned) [Example 66, isopropyl 3-(4-(6-fluoro-2-oxo-2,3-dihydro-1H-benzo[d]imidazol-1-yl)piperidin-1-yl)-3-methylpyrrolidine-1-carboxylate] the figure was 50.2 nM.
With `Cc1ccc2c(c1)[nH]c(=O)n2C1CCN(C2(C)CCN(C(=O)OCCF)C2)CC1` (single isomer, unassigned) [Example 29, 2-fluoroethyl 3-methyl-3-(4-(5-methyl-2-oxo-2,3-dihydro-1H-benzo[d]imidazol-1-yl)piperidin-1-yl)pyrrolidine-1-carboxylate] the figure was 166 nM; with `CCOC(=O)N1CCC(C)(N2CCC(N3C(=O)Cc4c3cc(F)cc4C(C)(C)C)CC2)C1` (stereo not shown) [Example 85, ethyl 3-(4-(4-tert-butyl-6-fluoro-2-oxoindolin-1-yl)piperidin-1-yl)-3-methylpyrrolidine-1-carboxylate], 1470 nM.
For `COC(=O)N1CCC(C)(N2CCC(n3c(=O)[nH]c4cc(F)c(F)cc43)CC2)C1` (single isomer, unassigned) [Example 59, methyl 3-(4-(5,6-difluoro-2-oxo-2,3-dihydro-1H-benzo[d]imidazol-1-yl)piperidin-1-yl)-3-methylpyrrolidine-1-carboxylate] the value was 77.6 nM; for `CCOC(=O)N1CCC(C)(N2CCC(n3c(=O)[nH]c4cc(C)ccc43)CC2)C1` (single isomer, unassigned) [Example 13, ethyl 3-methyl-3-(4-(5-methyl-2-oxo-2,3-dihydro-1H-benzo[d]imidazol-1-yl)piperidin-1-yl)pyrrolidine-1-carboxylate], 70.1 nM; for `CC1(N2CCC(n3c(=O)[nH]c4cc(F)ccc43)CC2)CCN(C(=O)OCCF)C1` (single isomer, unassigned) [Example 38, 2-fluoroethyl 3-(4-(5-fluoro-2-oxo-2,3-dihydro-1H-benzo[d]imidazol-1-yl)piperidin-1-yl)-3-methylpyrrolidine-1-carboxylate], 112 nM.
For `COC(=O)N1CCC(C)(N2CCC(n3c(=O)[nH]c4ccc(F)cc43)CC2)C1` (single isomer, unassigned) [Example 51, methyl 3-(4-(6-fluoro-2-oxo-2,3-dihydro-1H-benzo[d]imidazol-1-yl)piperidin-1-yl)-3-methylpyrrolidine-1-carboxylate], the concentration for a half-maximal effect (EC50) stood at 57.1 nM.
For `COC(=O)N1CCC(C)(N2CCC(N3C(=O)Cc4c3cc(C)cc4C(C)(C)C)CC2)C1` (stereo not shown) [Example 86, methyl 3-(4-(4-tert-butyl-6-methyl-2-oxoindolin-1-yl)piperidin-1-yl)-3-methylpyrrolidine-1-carboxylate] the value was 1420 nM; for `CCCOC(=O)N1CCC(C)(N2CCC(n3c(=O)[nH]c4ccc(F)cc43)CC2)C1` (single isomer, unassigned) [Example 63, propyl 3-(4-(6-fluoro-2-oxo-2,3-dihydro-1H-benzo[d]imidazol-1-yl)piperidin-1-yl)-3-methylpyrrolidine-1-carboxylate], 344 nM.
With `CC(C)OC(=O)N1CCC(C)(N2CCC(n3c(=O)[nH]c4cc(F)ccc43)CC2)C1` (stereo not shown) [Example 9, isopropyl 3-(4-(5-fluoro-2-oxo-2,3-dihydro-1H-benzo[d]imidazol-1-yl)piperidin-1-yl)-3-methylpyrrolidine-1-carboxylate] the figure was 124 nM; with `COC(=O)N1CCC(C)(N2CCC(n3c(=O)[nH]c4ccccc43)CC2)C1` (single isomer, unassigned) [Example 30, methyl 3-methyl-3-(4-(2-oxo-2,3-dihydro-1H-benzo[d]imidazol-1-yl)piperidin-1-yl)pyrrolidine-1-carboxylate], 108 nM; with `CCCOC(=O)N1CCC(C)(N2CCC(n3c(=O)[nH]c4ccc(F)cc43)CC2)C1` (single isomer, unassigned) [Example 64, propyl 3-(4-(6-fluoro-2-oxo-2,3-dihydro-1H-benzo[d]imidazol-1-yl)piperidin-1-yl)-3-methylpyrrolidine-1-carboxylate], 80.1 nM.
